In patent US12522585B2, “Method for preparing 2-chloro-n-(1-cyanocyclopropyl)-5-[2′-methyl-5′-(pentafluoroethyl)-4′-(trifluoromethyl)-2′h-1,3′-bipyrazol-4-yl]benzamide” ([…], priority 2020, dated 2026):

Assay: TGA of the product prepared in example 6
Assay type: physicochemical
Details: up to 150° C.
Excerpt: The product prepared in example 6 was investigated by TGA.

SMILES: Cn1nc(C(F)(F)C(F)(F)F)c(C(F)(F)F)c1-n1cc(-c2ccc(Cl)c(C(=O)NC3(C#N)CC3)c2)cn1 [example 6, 2-chloro-N-(1-cyanocyclopropyl)-5-[2′-methyl-5′-(pentafluoroethyl)-4′-(trifluoromethyl)-2′H-1,3′-bipyrazol-4-yl]benzamide]
- loss of mass (TGA): no loss of mass
